The numbers were not newly measured in US20160000762A1, “IMPROVING COGNITIVE FUNCTION” (THE REGENTS OF THE UNIVERSITY OF CALIFORNIA, priority 2013, published 2016), which cites them from elsewhere.

The data set relates to Aβ. Conditions: after traumatic brain injury; Loane et al., 2009; cited from earlier work.

In the case of `C[C@H](NC(=O)Cc1cc(F)cc(F)c1)C(=O)N[C@H](C(=O)OC(C)(C)C)c1ccccc1` [DAPT], the Aβ levels entry is recorded as “decreased” and the behavioral performance result was “improved”.
